We go through 4 compounds from PMC2916745 (Journal of medicinal chemistry, 2010).

One data set addresses human ERβ (Homo sapiens, UniProt Q92731). The data set can be described thus: competitive radiometric binding assay with [3H]estradiol, ERβ.
A further data set addresses T1, human ERα (Homo sapiens, UniProt P03372).
T1 sequence (P03372 1-595): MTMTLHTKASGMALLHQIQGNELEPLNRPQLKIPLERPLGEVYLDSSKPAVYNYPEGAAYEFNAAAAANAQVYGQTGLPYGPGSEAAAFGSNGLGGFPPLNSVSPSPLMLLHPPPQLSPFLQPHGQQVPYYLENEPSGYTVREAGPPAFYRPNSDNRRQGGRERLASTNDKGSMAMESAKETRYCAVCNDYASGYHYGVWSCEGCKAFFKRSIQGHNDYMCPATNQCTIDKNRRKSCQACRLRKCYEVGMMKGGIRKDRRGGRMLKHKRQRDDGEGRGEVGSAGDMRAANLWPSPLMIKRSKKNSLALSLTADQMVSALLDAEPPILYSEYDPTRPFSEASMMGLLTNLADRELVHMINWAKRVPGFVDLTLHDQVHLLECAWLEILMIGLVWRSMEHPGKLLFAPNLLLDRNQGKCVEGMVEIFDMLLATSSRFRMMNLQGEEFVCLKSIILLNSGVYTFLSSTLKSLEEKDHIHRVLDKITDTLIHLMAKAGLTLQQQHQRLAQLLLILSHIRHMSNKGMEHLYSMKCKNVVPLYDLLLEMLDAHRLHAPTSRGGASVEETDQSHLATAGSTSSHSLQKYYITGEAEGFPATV
Briefly: competitive radiometric binding assay with [3H]estradiol, ERα. The following applies: relative binding affinity, IC50[estradiol]/IC50[compound] × 100, estradiol = 100; 10 nM [3H]estradiol, 18-24 h at 0 °C; average ± range or SD.

Data set [1] deals with tamoxifen-resistant breast tumors. The conditions noted are these: cited from earlier work.
A further data set has as its system ERα-target genes. Briefly: real-time PCR analysis of ERα target genes in MCF-7 cells. The data set is classed as cell-based, human. The conditions noted are these: 1 μM compound, 1 nM E2, RNA level. For orientation: Quantitative PCR measures a nucleic acid by following its amplification.
The conditions of data set [2]: cited from earlier work.
In data set [3] the test system is tamoxifen-resistant breast cancer cells. The following applies: cited from earlier work.
Where [4] appears, read: Figure 6B, not fully reversed to control.

Chain of human ERβ (Q92731 whole entry): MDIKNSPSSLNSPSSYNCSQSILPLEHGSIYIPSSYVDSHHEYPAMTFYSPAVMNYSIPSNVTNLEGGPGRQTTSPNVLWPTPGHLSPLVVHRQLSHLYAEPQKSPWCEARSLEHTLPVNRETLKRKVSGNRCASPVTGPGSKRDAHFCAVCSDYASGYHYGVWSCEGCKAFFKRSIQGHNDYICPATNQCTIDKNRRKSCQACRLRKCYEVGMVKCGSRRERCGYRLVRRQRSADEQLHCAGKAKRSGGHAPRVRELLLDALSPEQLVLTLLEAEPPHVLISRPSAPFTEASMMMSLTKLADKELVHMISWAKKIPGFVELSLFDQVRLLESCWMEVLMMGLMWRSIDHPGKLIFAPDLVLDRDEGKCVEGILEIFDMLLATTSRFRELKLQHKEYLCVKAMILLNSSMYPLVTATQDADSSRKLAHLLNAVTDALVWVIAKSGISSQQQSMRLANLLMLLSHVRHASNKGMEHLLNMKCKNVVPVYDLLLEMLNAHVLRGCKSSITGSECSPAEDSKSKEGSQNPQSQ

In the case of `CC(=O)Oc1ccc(C(=C2CCCCC2)c2ccc(OC(C)=O)cc2)cc1` [Compound 2, cyclofenil], the β/α at human ERβ (ratio of RBA values, >1 for higher affinity on ERβ than on ERα) came out at 4.9. Moreover, on human ERβ (relative binding affinity, IC50[estradiol]/IC50[compound] × 100, estradiol = 100, 10 nM [3H]estradiol, 18-24 h at 0 °C, average ± range or SD), the “RBA ERβ” value is listed as 334 ± 54. Also, at human ERα, the “RBA ERα” value came to 68 ± 18.

`CC/C(=C(\c1ccccc1)c1ccc(/C=C/C(=O)O)cc1)c1ccccc1` [Compound 1]: the “growth of tamoxifen-resistant breast tumors” value in data set [1] is “can inhibit”.

As for `CC/C(=C(\c1ccc(O)cc1)c1ccc(/C=C/C(=O)O)cc1)c1ccccc1` [Compound 4], in the data set with ERα-target genes (Figure 6A), the “E2-mediated activation of the CA12 gene” value was “most effective”, the “E2-mediated stimulation of the PR gene” value is “significantly blocked” and the “E2-mediated stimulation of the pS2 gene” value is reported as “significantly blocked”. In addition, in the data set on ERα-target genes (setting [4]), the “E2-mediated repression of BLNK gene expression” value is reported as “reduce” and the “E2-mediated repression of ENC1 gene expression” value is listed as “reduce”.

Regarding `C[C@]12CC[C@@H]3c4ccc(O)cc4C[C@@H](CCCCCCCCC[S+]([O-])CCCC(F)(F)C(F)(F)F)[C@H]3[C@@H]1CC[C@@H]2O` (some centres unmarked) [ICI 182,780], the oral bioavailability result in data set [2] is “poor”. Further, the “growth of tamoxifen-resistant breast cancer cells” value in data set [3] is given as “capable of inhibiting”.
